Reference: patent US20080287445A1, “Prokineticin 2 receptor antagonists” (priority 2005, published 2008)
Several values for one entry are separate records, joined by “and”; a condition that tells them apart may be missing. Equal values may be shown once.

B1: PK1: Recombinant human prokineticin-1 expressed in HEK 293 cells, FLAG epitope cleaved; preparation holds full-length and a four C-terminal residue truncated product (protein, UniProt P58294 20-105, looked up)
Prokineticin-1: AVITGACERDVQCGAGTCCAISLWLRGLRMCTPLGREGEECHPGSHKVPFFRKRKHHTCPCLPNLLCSRFPDGRYRCSMDLKNINF
modifications: mixture with C-terminally truncated product

What was measured:
[1] = molecular target: T1, GPR73 (prokineticin 1 receptor) (Homo sapiens, UniProt Q8TCW9); test: PK1 functional assay: Ca2+ mobilization screening for PK1 antagonists on the FLIPR; type: cell-based; details: HEK 293 GPR73 cells, multiple values = multiple testing; for inhibition at 10 µM: HEK293, 10 μM compound, read-out: Ca^2+ Mobilization % Inh @ 10 μM; for IC50: PK1 ligand preparation at its EC50, read-out: Ca^2+ Mobilization IC50
T1 construct: expressed in transfected cells; host or cells: HEK 293
Summary of the method: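 HEK293 cells expressing human GPR73 were loaded with Calcium Plus dye, then on FLIPR given compound for 4 min 15 s before PK1 ligand at its predetermined EC50. Baseline-subtracted fluorescence over 1 min 45 s gave percent inhibition versus maximal signal; IC50 fitted.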

[2] = tested on: Cholera toxin evoked increase in baseline Isc; set-up: species or system rat
[3] = tested on: ileum mucosal tissues from PK1 receptor knock-out mice; test: PK1-evoked Isc in ileum mucosal tissues from PK1 receptor knock-out mice; details: exogenous PK1 peptide

T1 sequence (Q8TCW9 whole entry, species assumed): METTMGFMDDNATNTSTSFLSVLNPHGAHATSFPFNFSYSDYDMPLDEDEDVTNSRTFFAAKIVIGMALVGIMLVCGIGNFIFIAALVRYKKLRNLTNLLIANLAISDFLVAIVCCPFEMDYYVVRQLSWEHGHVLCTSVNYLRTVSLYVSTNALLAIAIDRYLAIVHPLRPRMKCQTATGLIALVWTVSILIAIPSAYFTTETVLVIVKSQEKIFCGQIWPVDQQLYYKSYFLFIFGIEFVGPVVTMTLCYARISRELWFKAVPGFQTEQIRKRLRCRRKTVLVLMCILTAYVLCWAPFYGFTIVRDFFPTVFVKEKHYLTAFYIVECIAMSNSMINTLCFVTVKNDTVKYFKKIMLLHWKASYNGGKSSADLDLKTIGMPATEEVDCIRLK

Row | Molecule | inhibition at 10 µM [1] | IC50 [1] | also measured
1 | COc1ccc(Cn2c(NCc3cccnc3N)nc(=O)n(Cc3ccc(OC)cc3)c2=O)cc1 [Cpd 3, 6-[(2-Amino-pyridin-3-ylmethyl)-amino]-1,3-bis-(4-methoxy-benzyl)-1H-[1,3,5]triazine-2,4-dione] | 83% | 34 nM and 61 nM and 82 nM | Ca^2+ Mobilization % Inh @ 10 μM ([1]; 10 μM compound, 10 µM): 94% and 100%; suppression of Cholera toxin-evoked increase in Isc (in words) [2]: suppresses; suppression of sustained increase in baseline Isc evoked by Cholera toxin [2]: 50-60%
2 | COc1ccc(Cn2c(NCc3cnc(C)nc3N)nc(=O)n(Cc3ccc(OC)cc3)c2=O)cc1 [Cpd 248] | 103% | 34 nM | 
3 | COc1ccc(Cn2c(SCc3cccnc3N)cc(=O)n(Cc3ccc(OC)cc3)c2=O)cc1 [Cpd 249] | 90% | 194 nM | 
4 | COc1ccc(Cn2c(NCc3c(COCc4ccccc4)cc(C)nc3N)nc(=O)n(Cc3ccc(OC)cc3)c2=O)cc1 [Cpd 250] | 48% | 8630 nM | 
5 | Cc1cc(CO)c(CNc2nc(=O)n(Cc3ccc4c(c3)CCO4)c(=O)n2Cc2ccc(OC(F)F)cc2)c(N)n1 [Cpd 251] | 93% | 225 nM | 
6 | COCCCCCn1c(=O)nc(NCc2c(C)cc(C)nc2N)n(Cc2ccc(OC)cc2)c1=O [Cpd 252, 6-[(2-Amino-4,6-dimethyl-pyridin-3-ylmethyl)-amino]-1-(4-methoxy-benzyl)-3-(5-methoxy-pentyl)-1H-[1,3,5]triazine-2,4-dione] | 71% | 1350 nM | 
7 | COCCCCCn1c(NCc2c(C)cc(C)nc2N)nc(=O)n(Cc2ccc(Cl)cc2)c1=O [Cpd 253] | 97% | 9 nM | 
8 | COCCCCCn1c(NCc2c(C)cc(C)nc2N)nc(=O)n(Cc2ccccc2)c1=O [Cpd 254] | 96% | 98 nM | 
9 | COCCCCCn1c(NCc2c(C)cc(C)nc2N)nc(=O)n(Cc2ccc(Cl)c(Cl)c2)c1=O [Cpd 255] | 99% | 78 nM | 
10 | COCCCCCn1c(NCc2cccnc2N)nc(=O)n(Cc2ccc(Cl)cc2)c1=O [Cpd 256] | 99% | 118 nM | 
11 | COCCCCCn1c(NCc2cccnc2N)nc(=O)n(Cc2ccc(OC(F)F)cc2)c1=O [Cpd 257] | 76% | 1520 nM | 
12 | Cc1cnc(CNc2nc(=O)n(Cc3ccc4c(c3)CCO4)c(=O)n2Cc2ccc(OC(F)F)cc2)cn1 [Cpd 261] | 87% | 772 nM | 
13 | Cc1cc(-c2ccc(F)cc2)nc(N)c1CNc1nc(=O)n(Cc2ccc3c(c2)CCO3)c(=O)n1Cc1ccc(OC(F)F)cc1 [Cpd 262] | 0.89% | > 10000 nM | 
14 | COc1ccc(Cn2c(NCc3c(N)nc(C)c(C)c3C)nc(=O)n(Cc3ccc(OC)cc3)c2=O)cc1 [Cpd 263] | 99% | 94 nM | 
15 | COc1ccc(Cn2c(NCc3c(N)nc4c(c3C)CCC4)nc(=O)n(Cc3ccc(OC)cc3)c2=O)cc1 [Cpd 264] | 95% | 74 nM | 
16 | CCCc1cc(CCC)c(CNc2nc(=O)n(Cc3ccc(OC)cc3)c(=O)n2Cc2ccc(OC)cc2)c(N)n1 [Cpd 265] | 95% | 441 nM | 
17 | COc1ccc(Cn2c(NCc3cccc(C)n3)nc(=O)n(Cc3ccc(OC)cc3)c2=O)cc1 [Cpd 267] | 10% | > 10000 nM | 
18 | Nc1cc(Cn2c(=O)nc(NCc3cccnc3N)n(Cc3ccc(OC(F)F)cc3)c2=O)ccc1O [Cpd 268] | 24% | > 10000 nM | 
19 | Nc1cc(Cn2c(=O)nc(NCc3cccnc3N)n(Cc3ccc4c(c3)CCO4)c2=O)ccc1O [Cpd 269] | 22% | > 10000 nM | 
20 | Cc1cc(COCc2ccccc2)c(CNc2nc(=O)n(Cc3ccc4c(c3)CCO4)c(=O)n2Cc2ccc(OC(F)F)cc2)c(N)n1 [Cpd 270, 6-[(2-Amino-4-benzyloxymethyl-6-methyl-pyridin-3-ylmethyl)-amino]-1-(4-difluoromethoxy-benzyl)-3-(2,3-dihydro-benzofuran-5-ylmethyl)-1H-[1,3,5]triazine-2,4-dione] | 12% | > 10000 nM | 
21 | B1 |  |  | change in Isc compared to wild-type littermates [3]: failed to elicit a significant change in Isc
